Test results from patent US5183828A, “Polyhydroxybenzoic acid derivatives” (priority 1990, dated 1993).
Several values for one entry are separate records, joined by “and”; a condition that tells them apart may be missing. Equal entries are not always repeated. Structures can show the parent of a compound that is named as a salt.

How the values were obtained:
L1210 leukemia = test: antitumor activity in L1210 leukemia (percent increase in survival time), Table 2; type: in vivo, mice; conditions: Mus musculus, L1210, 192 h, 8 days; for ILS at 300 mg/kg: 300 mg/kg ip daily
Protocol: Testing of the compounds of this invention against L-1210 lymphoid leukemia were carried out as follows: L-1210 leukemia was maintained by weekly passage of 10^5 L-1210 cells intraperitoneally into DBA/2 mice. Diluted ascitic fluid, 0.1 ml. (10^5 cells), was administered ip to female B6D2 F1 mice weighing about 20 g. Drugs were administered ip 24 hours after tumor transplantation and injections were continued daily for a total of eight days. A group of control mice receiving only the injection medium were maintained. Table 2 which follows gives the antitumor activity against L-1210 leukemia for certain compounds of this invention. In the table, column 1 gives the name of the compound, column 2 the dose in mg./kg., and column 3 the percent increase in survival time over controls at each dose level.

B16 Melanoma = test: activity vs B16 melanoma (T/C % survival), Table 4; type: in vivo, mice; conditions: nine days, >120 significant
Protocol: The drugs were also used to treat melanotic melanoma B16. The protocol for testing against this tumor is as follows:
0.5 ml. of a tumor homogenate prepared by homogenizing 1 g. of tumor with 10 ml. of cold balanced solution is implanted ip in groups of 10 B6 C3 F1 mice. The drug is administered daily for a total of nine days starting one day after tumor inoculation. The results are expressed as mean survival time of treated group versus control group (T/C) as a percent.

[1] = free radical scavenging ability (destruction of diphenylpicrylhydrazyl), Table 7; conditions: 100 μM diphenylpicrylhydrazyl in acetone; test compound 25 μM, 2.5 μM (footnote)
Description: It is believed that the antineoplastic activity of the compounds of this invention is due in parts to their ability to scavenge free-radicals. Additionally, the compounds of this invention are cancer protective agents and this utility also may be a manifestation of their free-radical scavenging capability. Free-radical scavenging agents may also be useful in detoxifying mammals in whom an excess of free radicals is a cause and/or result of the toxicity. Other possible uses of free radical scavengers are to inhibit protaglandin transformation, leucotriene interconversion and lipogenesis, to act as inflammatory modulators and as food additive or preservatives to prevent lipid oxidation. The free radical scavenging ability of the compounds of the invention was determined by measuring the destruction of the stable free radical, diphenylpicrylhydrazyl, in the presence of the test compound in a manner similar to that reported by […] and Herzmann, Naturwiss, 47, 133-134 (1960). […] The test compound was added at a final concentration of 25 μM and the rate of reduction of absorpotion at […] was observed. Table 7 below gives the free radical scavenging abilities of the compounds of this invention expresses as the initial rate of decrease in optical density units/min.

SRS-A biosynthesis = test: effect of drug on SRS-A biosynthesis; type: in vivo; conditions: 10 mg/kg, i.v.; ovalbumin-sensitized guinea-pigs
Protocol: Compounds according to this invention were also able to affect SRS-A biosynthesis, also in vivo. In this determination, male Hartley guinea-pigs (200-300 g) were sensitized with a single intraperitoneal injection of ovalbumin (10 mg) in 1 ml of 0.9% w/v NaCl solution (saline). The animals were used for study on days 28-45, following the ovalbumin injection. Guinea-pigs this sensitized were anaesthetized with an intraperitoneal injection of urethane (2 g/kg), and the carotid artery and jugular vein cannulated for measurement of arterial blood pressure and to facilitate intravenous drug administration. Animals were ventilated with a Harvard small animal respirator set at a stroke volume of 2.5 cc and a rate of 40 breaths per min. Ventilatory pressure (cmH2 O) was measured with a Statham pressure transducer from a side arm off the tracheal cannula. […]
Plasma SRS-A was determined as follows: Arterial blood was drawn from the carotid artery of the guinea-pigs into sodium citrate (0.38%) containing indomethacin (10^-4 M). […]
SRS-A was bioassayed on the guinea-pig ileum incubated in Tyrode solution containing 10^-6 M atropine sulphate and 10^-6 M pyrilamine maleate and aerated with 95% O2 and 5% CO2. Changes in tension were measured isotonically with an Adaps rotary motion transducer and recorded on a Linear recorder. […]

Row | SMILES | ILS at 157 mg/kg (L1210 leukemia; 157 mg/kg ip daily) [%] | ILS at 200 mg/kg (L1210 leukemia; 200 mg/kg ip daily) [%] | ILS at 238 mg/kg (L1210 leukemia; 238 mg/kg ip daily) [%] | ILS at 300 mg/kg (L1210 leukemia) [%] | T/C % (mean survival time) (B16 Melanoma; 25 mg/kg daily) [%] | T/C % (mean survival time) (B16 Melanoma; 50 mg/kg daily) [%] | T/C % (mean survival time) (B16 Melanoma; 100 mg/kg daily) [%] | T/C % (mean survival time) (B16 Melanoma; 200 mg/kg daily) [%] | T/C % (mean survival time) (B16 Melanoma; 400 mg/kg daily) [%] | T/C % (mean survival time) (B16 Melanoma; 800 mg/kg daily) | initial rate of decrease in optical density (518 nm) [1] [units/min.] | % Inhibition of SRS-A Biosynthesis (SRS-A biosynthesis) [%] | ILS at 450 mg/kg (L1210 leukemia; 450 mg/kg ip daily) [%] | T/C % (mean survival time) (B16 Melanoma; 50 mg/kg daily, listed as ethyl gallamidate.HCl, hydrochloride) | T/C % (mean survival time) (B16 Melanoma; 100 mg/kg daily, listed as ethyl gallamidate.HCl, hydrochloride) | T/C % (mean survival time) (B16 Melanoma; 200 mg/kg daily, listed as ethyl gallamidate.HCl, hydrochloride) | T/C % (mean survival time) (B16 Melanoma; 400 mg/kg daily, listed as ethyl gallamidate.HCl, hydrochloride)
1 | NC(=NO)c1ccc(O)c(O)c1 [3,4-dihydroxybenzamidoxime.HCl, 3,4-dihydroxybenzamidoximehydrochloride] | 132 | 43.5 | 46.9 | 73.9 | 119 | 127 | 129 | 134 | 117 | toxic | 0.718 | 25 | – | – | – | – | –
2 | CCOC(=N)c1cc(O)c(O)c(O)c1 [ethyl 3,4,5-trihydroxybenzamidate-HCl, Ethyl 3,4,5-trihydroxybenzamidate hydrochloride] | – | – | – | 42.3 | 105 | – | – | – | – | – | 3.730 | 29 | 58.4 | 109% and 104% | 121% and 109% and 107% | 121% and 125% and 122% | 124% and 156% and 137%
